The values below are quoted from earlier work in patent US20140323580A1, “P[…] DOSAGE FORM” (Pharmacorp CC, priority 2009, published 2014).

Molecules are shown by their SMILES. Where a name gives a salt, the structure may show the parent alone. Read-outs that look alike come from different tables or passages of the source.

Turning to `CC(C)(N)Cc1ccccc1` [Phentermine, α,α-dimethyl phenethylamine (phenyl-tertiary-butylamine)], the solubility in alcohol result is “soluble”, the solubility in chloroform result was “soluble”, the solubility in ether result was “soluble” and the solubility in water result is on record as “slightly soluble”.
For `CC(C)(N)Cc1ccccc1` [phentermine HCl], for the setting “HCl”, the solubility in alcohol entry is “very soluble”, the solubility in chloroform result is listed as “very soluble”, the solubility in ether result is reported as “insoluble” and the solubility in water entry is given as “very soluble”.
